Measurements from the supplement of paper PMC10627819.

Tests used:
Experiment in all cases: fitness (endpoint OD595 vs no drug) (fraction); higher = more growth
[1] = system: S. aureus DSM 20231
Procedure, shortened: (§1)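 Plates with 384 wells were inoculated at OD595 0.01 using 30 µl of TSB, LB Lennox or CY, or 55 µl for S. pneumoniae. Incubation was at 37 °C, with OD595 measured every 30 min for 14 h. Fitness is the stationary-phase transition optical density over the robust mean of no-drug control wells, after first-reading background subtraction; it is capped at 1.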

[2] = system: S. pneumoniae D39V
Procedure, shortened: as §1

[3] = system: B. subtilis 168
Procedure, shortened: as §1

CN(C)[C@@H]1C(O)=C(C(N)=O)C(=O)[C@@]2(O)C(O)=C3C(=O)c4c(O)ccc(Cl)c4[C@@](C)(O)[C@H]3C[C@@H]12 [Chlortetracycline] + CO[C@@]12[C@H](COC(N)=O)C3=C(C(=O)C(C)=C(N)C3=O)N1C[C@@H]1N[C@@H]12 [Mitomycin C]
[1], first compound 0.006 µg/mL, one replicate
Settings	fitness
partner 0.0156 µg/mL	0.65
partner 0.0312 µg/mL	0.64
partner 0.0625 µg/mL	0.542

fitness
Settings	first compound 0.012 µg/mL	first compound 0.024 µg/mL	first compound 0.048 µg/mL	first compound 0.375 µg/mL	first compound 0.75 µg/mL	first compound 1.5 µg/mL
[1], partner 0.0156 µg/mL	0.55	0.288	0.0746	–	–	–
[1], partner 0.0312 µg/mL	0.52	0.224	0.0614	–	–	–
[1], partner 0.0625 µg/mL	0.384	0.174	0.17	–	–	–
[2], partner 0.001075 µg/mL	0.924	0.895	0.824	–	–	–
[2], partner 0.002 µg/mL	–	–	–	0.0654	0.0249	0.0576
[2], partner 0.00215 µg/mL	0.853	0.832	0.788	–	–	–
[2], partner 0.004 µg/mL	–	–	–	0.0793	0.0699	0.0536
[2], partner 0.0043 µg/mL	0.687	0.713	0.645	–	–	–
[2], partner 0.008 µg/mL	–	–	–	0.0339	0.0265	0.0168

CN(C)[C@@H]1C(O)=C(C(N)=O)C(=O)[C@@]2(O)C(O)=C3C(=O)c4c(O)ccc(Cl)c4[C@@](C)(O)[C@H]3C[C@@H]12 [Chlortetracycline] + COc1c(N2C[C@@H]3CCCN[C@@H]3C2)c(F)cc2c(=O)c(C(=O)O)cn(C3CC3)c12 [Moxifloxacin]
[1], one replicate
Settings	fitness
first compound 0.006 µg/mL, partner 0.0075 µg/mL	0.729
first compound 0.006 µg/mL, partner 0.015 µg/mL	0.719
first compound 0.006 µg/mL, partner 0.03 µg/mL	0.621
first compound 0.012 µg/mL, partner 0.06 µg/mL	0.659
first compound 0.012 µg/mL, partner 0.12 µg/mL	0.548
first compound 0.024 µg/mL, partner 0.06 µg/mL	0.66
first compound 0.024 µg/mL, partner 0.12 µg/mL	0.535
first compound 0.048 µg/mL, partner 0.06 µg/mL	0.14
first compound 0.048 µg/mL, partner 0.12 µg/mL	0.165

Settings	fitness
[1], first compound 0.012 µg/mL, partner 0.0075 µg/mL	0.558
[1], first compound 0.012 µg/mL, partner 0.015 µg/mL	0.539
[1], first compound 0.012 µg/mL, partner 0.03 µg/mL	0.604
[1], first compound 0.024 µg/mL, partner 0.0075 µg/mL	0.193
[1], first compound 0.024 µg/mL, partner 0.015 µg/mL	0.177
[1], first compound 0.048 µg/mL, partner 0.0075 µg/mL	0.185
[1], first compound 0.048 µg/mL, partner 0.015 µg/mL	0.172
[1], first compound 0.048 µg/mL, partner 0.03 µg/mL	0.132
[2], first compound 0.012 µg/mL, partner 0.005 µg/mL	0.907
[2], first compound 0.012 µg/mL, partner 0.01 µg/mL	0.923
[2], first compound 0.012 µg/mL, partner 0.02 µg/mL	0.765
[2], first compound 0.024 µg/mL, partner 0.005 µg/mL	0.863
[2], first compound 0.024 µg/mL, partner 0.01 µg/mL	0.915
[2], first compound 0.024 µg/mL, partner 0.02 µg/mL	0.844
[2], first compound 0.048 µg/mL, partner 0.005 µg/mL	0.821
[2], first compound 0.048 µg/mL, partner 0.01 µg/mL	0.871
[2], first compound 0.048 µg/mL, partner 0.02 µg/mL	0.78
[2], first compound 0.375 µg/mL, partner 0.0312 µg/mL	0.0285
[2], first compound 0.375 µg/mL, partner 0.0625 µg/mL	0.0351
[2], first compound 0.375 µg/mL, partner 0.125 µg/mL	0.0309
[2], first compound 0.75 µg/mL, partner 0.0312 µg/mL	0.0253
[2], first compound 0.75 µg/mL, partner 0.0625 µg/mL	0.0219
[2], first compound 0.75 µg/mL, partner 0.125 µg/mL	0.0157
[2], first compound 1.5 µg/mL, partner 0.0312 µg/mL	0.0473
[2], first compound 1.5 µg/mL, partner 0.0625 µg/mL	0.0386
[2], first compound 1.5 µg/mL, partner 0.125 µg/mL	0.0409
[3], first compound 0.0475 µg/mL, partner 0.0312 µg/mL	0.0451
[3], first compound 0.0475 µg/mL, partner 0.0625 µg/mL	0.0327
[3], first compound 0.0475 µg/mL, partner 0.125 µg/mL	0.0439
[3], first compound 0.0475 µg/mL, partner 2 µg/mL	0.0242
[3], first compound 0.0475 µg/mL, partner 4 µg/mL	0.0248
[3], first compound 0.0475 µg/mL, partner 8 µg/mL	0.0159
[3], first compound 0.095 µg/mL, partner 0.0312 µg/mL	0.104
[3], first compound 0.095 µg/mL, partner 0.0625 µg/mL	0.0278
[3], first compound 0.095 µg/mL, partner 0.125 µg/mL	0.0296
[3], first compound 0.095 µg/mL, partner 2 µg/mL	0.0289
[3], first compound 0.095 µg/mL, partner 4 µg/mL	0.0255
[3], first compound 0.095 µg/mL, partner 8 µg/mL	0.0155
[3], first compound 0.19 µg/mL, partner 0.0312 µg/mL	0.0533
[3], first compound 0.19 µg/mL, partner 0.0625 µg/mL	0.0332
[3], first compound 0.19 µg/mL, partner 0.125 µg/mL	0.0433
[3], first compound 0.19 µg/mL, partner 2 µg/mL	0.0261
[3], first compound 0.19 µg/mL, partner 4 µg/mL	0.0247
[3], first compound 0.19 µg/mL, partner 8 µg/mL	0.0129
